Test [1] relates to Glomerella lagenarium syn Colletotrichum lagenarium. Nature of the test: Glomerella lagenarium syn. Colletotrichum lagenarium (anthracnose), liquid culture growth inhibition. The conditions noted are these: Colletotrichum orbiculare, PDB nutrient broth, 24° C., 72 hrs, 620 nm, vs untreated control. The format is cell-based. Here is the method: Conidia of the fungus from cryogenic storage were directly mixed into nutrient broth (PDB potato dextrose broth). A DMSO solution of the test compounds was placed into a microtiter plate (96-well format) and the nutrient broth containing the fungal spores was added to it. The test plates were incubated at 24° C. and the inhibition of growth was determined photometrically after 72 hrs at 620 nm.

For test [2], the system named is Botryotinia fuckeliana syn. Botrytis cinerea. The experiment in a line: Botryotinia fuckeliana syn. Botrytis cinerea (gray mould), liquid culture growth inhibition. The format is cell-based. To be noted: PDB nutrient broth, 24° C., 72 hrs, photometric, vs untreated control. On the procedure:
Conidia of the fungus from cryogenic storage were directly mixed into nutrient broth (PDB potato dextrose broth). A DMSO solution of the test compounds was placed into a microtiter plate (96-well format) and the nutrient broth containing the fungal spores was added to it. The test plates were incubated at 24° C. and the inhibition of growth was determined photometrically after 72 hrs.

From patent US20240182420A1, “MICROBIOCIDAL ISONICOTINIC AMIDE DERIVATIVES” (SYNGENTA CROP PROTECTION AG, priority 2021, published 2024) come the findings set out here.

What is called inhibition of growth is the percentage by which the read-out fell short of the control. Lower therefore signals a weak effect.

Structures are written as SMILES. A value given as a limit tells only on which side of the number the result lay.

In test [1], `Cc1nccc(C(=O)NCC(F)c2ccc(Cl)cc2Cl)c1Oc1cccc(C2CC2)c1` (stereo not shown) [Compound 1.12, 3-(3-cyclopropyl-phenoxy)-N-[2-(2,4-dichlorophenyl)-2-fluoro-ethyl]-2-methyl-pyridine-4-carboxamide] showed an inhibition of growth at 20 ppm not below 80%.

In the case of `Cc1cc(C(=O)NCC(F)c2ccc(Cl)cc2Cl)c(Oc2cccc(C3CC3)c2)c(Cl)n1` (stereo not shown) [Compound 1.17, 2-chloro-3-(3-cyclopropyl-phenoxy)-N-[2-(2,4-dichlorophenyl)-2-fluoro-ethyl]-6-methyl-pyridine-carboxamide], the inhibition of growth at 20 ppm in test [2] and in test [1] was not below 80% in each case.

`O=C(NCCc1ccc(Cl)cc1Cl)c1cc(C(F)(F)F)ncc1Oc1cccc(C2CC2)c1` [Compound 1.19, 5-(3-cyclopropyl-phenoxy)-N-[2-(2,4-dichlorophenyl)ethyl]-2-(trifluoromethyl) pyridine-4-carboxamide] returned an inhibition of growth at 20 ppm in test [1] not below 80%.

For `N#Cc1ccccc1CCNC(=O)c1cc(Cl)ncc1Oc1cccc(C2CC2)c1` [Compound 1.23, 2-chloro-N-[2-(2-cyanophenyl)ethyl]-5-(3-cyclopropyl-phenoxy)pyridine-4-carboxamide], the inhibition of growth at 20 ppm in test [1] is not below 80%.

For `O=C(NCCc1ccc(Cl)cc1)c1cc(Cl)ncc1Oc1cccc(C2CC2)c1` [Compound 1.24, 2-chloro-N-[2-(4-chlorophenyl)ethyl]-5-(3-cyclopropyl-phenoxy)pyridine-4-carboxamide], the inhibition of growth at 20 ppm in test [2] and in test [1] was not below 80% throughout.

`COc1ccc(CCNC(=O)c2cc(Cl)ncc2Oc2cccc(C3CC3)c2)cc1OC` [Compound 1.26, 2-chloro-5-(3-cyclopropyl-phenoxy)-N-[2-(3,4-dimethoxyphenyl)ethyl]pyridine-4-carboxamide] had an inhibition of growth at 20 ppm in test [1] not below 80%.

With `O=C(NCCc1ccccc1)c1cc(Cl)ncc1Oc1cccc(C2CC2)c1` [Compound 1.29, 2-chloro-5-(3-cyclopropyl-phenoxy)-N-(2-phenylethyl) pyridine-4-carboxamide], in test [1], the inhibition of growth at 20 ppm is not below 80%.

`O=C(NCCc1ccc(F)cc1)c1cc(Cl)ncc1Oc1cccc(C2CC2)c1` [Compound 1.31, 2-chloro-5-(3-cyclopropyl-phenoxy)-N-[2-(4-fluorophenyl)ethyl]pyridine-4-carboxamide]: the inhibition of growth at 20 ppm in test [1] was not below 80%.

For `O=C(NCC(F)(F)c1ccc(F)cc1F)c1cc(Cl)ncc1Oc1cccc(C2CC2)c1` [Compound 1.32, 2-chloro-5-(3-cyclopropyl-phenoxy)-N-[2-(2,4-difluorophenyl)-2,2-difluoro-ethyl]pyridine-4-carboxamide], the inhibition of growth at 20 ppm in test [2] and in test [1] was not below 80% throughout.

`O=C(NCCc1ccccc1Cl)c1cc(Cl)ncc1Oc1cccc(C2CC2)c1` [Compound 1.33, 2-chloro-N-[2-(2-chlorophenyl)ethyl]-5-(3-cyclopropyl-phenoxy)pyridine-4-carboxamide] registered an inhibition of growth at 20 ppm in test [1] not below 80%.

`N#Cc1ccc(CCNC(=O)c2cc(Cl)ncc2Oc2cccc(C3CC3)c2)cc1` [Compound 1.34, 2-chloro-N-[2-(4-cyanophenyl)ethyl]-5-(3-cyclopropyl-phenoxy) pyridine-4-carboxamide] registered an inhibition of growth at 20 ppm in test [1] not below 80%.

For the compound `Cc1cc(C(=O)NC[C@H](F)c2ccc(Cl)cc2Cl)c(Oc2cccc(C3CC3)c2)cn1` [Compound 1.42, 5-(3-cyclopropyl-phenoxy)-N-[(2R)-2-(2,4-dichlorophenyl)-2-fluoro-ethyl]-2-methyl-pyridine-4-carboxamide], the inhibition of growth at 20 ppm in test [2] and in test [1] was not below 80% each time.

In test [2], `O=C(NCCc1ccc(Cl)cc1Cl)c1cc(Cl)ncc1Oc1ccccc1` [Compound 1.45, 2-chloro-N-[2-(2,4-dichlorophenyl)ethyl]-5-phenoxy-pyridine-4-carboxamide] yielded an inhibition of growth at 20 ppm not below 80%.

As to `Cc1cccc(Oc2cnc(Cl)cc2C(=O)NCCc2ccc(Cl)cc2)c1` [Compound 1.47, 2-chloro-N-[2-(4-chlorophenyl)ethyl]-5-(3-methylphenoxy) pyridine-4-carboxamide], the inhibition of growth at 20 ppm in test [2] and in test [1] was not below 80% in each case.

Consider `Cc1ccc(CCNC(=O)c2cc(Cl)ncc2Oc2cccc(C3CC3)c2)cc1` [Compound 1.53, 2-chloro-5-(3-cyclopropyl-phenoxy)-N-[2-(p-tolyl)ethyl]pyridine-4-carboxamide], for which the inhibition of growth at 20 ppm in test [2] and in test [1] was not below 80% each time.

Turning to `Cc1cccc(Oc2cnc(Cl)cc2C(=O)NCCc2ccccc2Cl)c1` [Compound 1.54, 2-chloro-N-[2-(2-chlorophenyl)ethyl]-5-(3-methylphenoxy) pyridine-4-carboxamide], the inhibition of growth at 20 ppm in test [2] was not below 80%.

For `COc1ccc(CCNC(=O)c2cc(Cl)ncc2Oc2cccc(C)c2)cc1` [Compound 1.55, 2-chloro-N-[2-(4-methoxyphenyl)ethyl]-5-(3-methylphenoxy) pyridine-4-carboxamide], the inhibition of growth at 20 ppm in test [2] was not below 80%.

Turning to `Cc1ccc(CCNC(=O)c2cc(Cl)ncc2Oc2cccc(C)c2)cc1` [Compound 1.57, 2-chloro-5-(3-methylphenoxy)-N-[2-(p-tolyl)ethyl]pyridine-4-carboxamide], the inhibition of growth at 20 ppm in test [2] and in test [1] was not below 80% in each case.

In test [2], `Cc1cccc(Oc2cnc(Cl)cc2C(=O)NCC(F)c2ccc(F)cc2F)c1` (stereo not shown) [Compound 1.59, 2-chloro-N-[2-(2,4-difluorophenyl)-2-fluoro-ethyl]-5-(3-methylphenoxy) pyridine-4-carboxamide] came in with an inhibition of growth at 20 ppm not below 80%.

With `O=C(NCC(F)c1ccc(Cl)cc1Cl)c1cc(Cl)ncc1Oc1ccc(F)c(F)c1` (stereo not shown) [Compound 1.62, 2-chloro-N-[2-(2,4-dichlorophenyl)-2-fluoro-ethyl]-5-(3,4-difluorophenoxy) pyridine-4-carboxamide], the inhibition of growth at 20 ppm in test [2] was not below 80%.

`CCOc1cccc(Oc2cnc(Cl)cc2C(=O)NCC(F)c2ccc(Cl)cc2Cl)c1` (stereo not shown) [Compound 1.65, 2-chloro-N-[2-(2,4-dichlorophenyl)-2-fluoro-ethyl]-5-(3-ethoxyphenoxy) pyridine-4-carboxamide] came in with an inhibition of growth at 20 ppm in test [1] not below 80%.

Take `CCc1cccc(Oc2cnc(Cl)cc2C(=O)NCC(F)c2ccc(Cl)cc2Cl)c1` (stereo not shown) [Compound 1.66, 2-chloro-N-[2-(2,4-dichlorophenyl)-2-fluoro-ethyl]-5-(3-ethylphenoxy) pyridine-4-carboxamide]: the inhibition of growth at 20 ppm in test [2] and in test [1] was not below 80% in each case.

Consider `O=C(NCC(F)c1ccc(Cl)cc1Cl)c1cc(Cl)ncc1Oc1ccccc1` (stereo not shown) [Compound 1.67, 2-chloro-N-[2-(2,4-dichlorophenyl)-2-fluoro-ethyl]-5-phenoxy-pyridine-4-carboxamide], for which the inhibition of growth at 20 ppm in test [2] is not below 80%.

Turning to `O=C(NCCc1ccc(Cl)cc1Cl)c1cc(Cl)ncc1Oc1cccc(Cl)c1` [Compound 1.68, 2-chloro-5-(3-chlorophenoxy)-N-[2-(2,4-dichlorophenyl)ethyl]pyridine-4-carboxamide], the inhibition of growth at 20 ppm in test [2] and in test [1] was not below 80% throughout.

Regarding `O=C(NCC(F)(F)c1ccccc1)c1cc(Cl)ncc1Oc1cccc(C2CC2)c1` [Compound 1.71, 2-chloro-5-(3-cyclopropyl-phenoxy)-N-(2,2-difluoro-2-phenyl-ethyl)pyridine-4-carboxamide], the inhibition of growth at 20 ppm in test [2] and in test [1] was not below 80% throughout.

As for `O=C(N[C@@H]1C[C@@H]1c1ccc(F)cc1)c1cc(Cl)ncc1Oc1cccc(C2CC2)c1` [Compound 1.75, 2-chloro-5-(3-cyclopropyl-phenoxy)-N-[(1R,2R)-2-(4-fluorophenyl)cyclopropyl]pyridine-4-carboxamide], the inhibition of growth at 20 ppm in test [2] and in test [1] was not below 80% each time.

Regarding `Cc1ccc(C(F)(F)CNC(=O)c2cc(Cl)ncc2Oc2cccc(C3CC3)c2)c(C)c1` [Compound 1.76, 2-chloro-5-(3-cyclopropyl-phenoxy)-N-[2-(2,4-dimethylphenyl)-2,2-difluoro-ethyl]pyridine-4-carboxamide], the inhibition of growth at 20 ppm in test [2] and in test [1] was not below 80% each time.

Regarding `Cc1ccc(CCNC(=O)c2cc(Cl)ncc2Oc2cccc(C3CC3)c2)c(C)c1` [Compound 1.77, 2-chloro-5-(3-cyclopropyl-phenoxy)-N-[2-(2,4-dimethylphenyl)ethyl]pyridine-4-carboxamide], the inhibition of growth at 20 ppm in test [2] and in test [1] was not below 80% throughout.

As to `CC(C)=Cc1ncc(Oc2cccc(C3CC3)c2)c(C(=O)NCC(F)c2ccc(Cl)cc2Cl)c1O` (stereo not shown) [Compound 1.89, 5-(3-cyclopropyl-phenoxy)-N-[2-(2,4-dichlorophenyl)-2-fluoro-ethyl]-3-hydroxy-2-(2-methylprop-1-enyl)pyridine-4-carboxamide], the inhibition of growth at 20 ppm in test [2] and in test [1] was not below 80% throughout.

As to `Cc1cc(C(=O)NCC2(c3ccc(Cl)cc3Cl)CC2)c(Oc2cccc(C3CC3)c2)cn1` [Compound 1.90, 5-(3-cyclopropyl-phenoxy)-N-[[1-(2,4-dichlorophenyl)cyclopropyl]methyl]-2-methyl-pyridine-4-carboxamide], the inhibition of growth at 20 ppm in test [2] and in test [1] was not below 80% each time.

Compound `N#Cc1cncc(Oc2cccc(C3CC3)c2)c1C(=O)NCC(F)c1ccc(Cl)cc1Cl` (stereo not shown) [Compound 1.97, 3-cyano-5-(3-cyclopropyl-phenoxy)-N-[2-(2,4-dichlorophenyl)-2-fluoro-ethyl]pyridine-4-carboxamide] had an inhibition of growth at 20 ppm in test [1] not below 80%.
